Results from patent US20240174649A1, “CULLIN-RING E3 UBIQUITIN LIGASE 4 INHIBITOR COMPOUNDS AND METHODS OF THEIR USE” (ICAHN SCHOOL OF MEDICINE AT MOUNT SINAI, priority 2021, published 2024).
Read-outs that look alike come from different tables or passages of the source.

What was measured:
[1] = molecular target: T1, ROC1-CUL1 CTD (Homo sapiens (Human), UniProt Q13616); assay: FRET K48 di-Ub synthesis assay; format: biochemical; conditions: for E3 inhibition: up to 80 μM
Protocol: The high throughput screen (“HTS”) employed the FRET K48 di-Ub assay as established previously (Wu et al., “Suramin Inhibits Cullin-RING E3 Ubiquitin Ligases,” PNAS 113(14):E2011-2018 (2016), which is hereby incorporated by reference in its entirety) and was carried out at Memorial Sloan Kettering Cancer Center Core Screening Facility. For HTS, the assay was formatted using three reagent addition steps. Library compounds, stored in 10 mM stock plates (DMSO), were transferred into assay plates and each well contains a single compound at 100 μM in 1 μl 10% DMSO. The complete complement of proteins/enzymes (6.5 μl), containing Ub E1 (14 nM), E2 Cdc34 (124 nM), E3 ROC1-CUL1 CTD (0.2 μM), Ub C31-I555 (donor, 0.93 μM), and Ub C64-I647 (receptor, 1.62 μM), in the presence of 33 mM Tris-HCl (pH 7.4), 1.7 mM MgCl2, 0.33 mM DTT, and BSA (0.07 mg/ml), was added to each plate. The concentrations of all five proteins have been determined based on Km measurement as described previously (Wu et al., “Suramin Inhibits Cullin-RING E3 Ubiquitin Ligases,” PNAS 113(14):E2011-2018 (2016), which is hereby incorporated by reference in its entirety). To initiate ubiquitination, ATP (2.5 μl in 2.64 mM) was added and its final concentration was 0.66 mM. The concentration of ATP was set high to minimize identification of nucleotide analogues because the priority of the HTS is to find small molecule modulators specific for E3 ROC1-CUL1 CTD. In this setting, the concentration of compound and DMSO in a given well were 10 μM and 1%, respectively. After incubation at room temperature for 45 min, EDTA (30 mM) was added to terminate the reaction. The reaction was quantified based on the ratio of acceptor:donor fluorescence (excitation 515 nm; donor emission 570 nm; acceptor emission 670 nm) using a Victor high-throughput plate reader (Perkin Elmer).
(§1) The reaction mixture (15 μl) was assembled onto a 384-well microtiter plate. […] ATP (0.66 mM) was then added to the mix followed by a brief centrifugation to settle down the mixture. The resulting plate was incubated at 30° C. in the Synergy-H1 reader and the fluorescence signal was monitored. Ubiquitination was quantified based on the ratio of acceptor:donor fluorescence (excitation 515 nm; donor emission 570 nm, acceptor emission 670 nm).

[2] = molecular target: T1, ROC1-CUL1 CTD; assay: Ligand binding by MST
Protocol: (§2) E3 ligase complex (˜2 nmol) was labeled with fluorescent dye using Monolith NT Protein Labeling Kit Red-NHS (Nanotemper) in the presence of 20 mM MES pH 6.0 and 150 mM NaCl. Excess dye was removed using the included gravity flow column and eluted in storage buffer containing 20 mM Tris-HCl, pH 7.4, 150 mM NaCl, and 10% glycerol. The fluorescent E3 complex (˜0.01-0.06 μM) was mixed with increasing amount of compound in a buffer (20 μl) that contains phosphate-buffered saline, 0.1% TWEEN-20 and 2% prionex. Following incubation at room temperature for 30 min, the reaction mixture loaded into premium coated capillaries and analyzed in the Monolith NT.115 machine (Nanotemper). Thermophoresis was recorded for each sample and binding curve was generated and Kd was calculated using the included software. For reactions where significant ligand specific fluorescence quenching occurred (verified by manufacturer's SDS Denaturation-test protocol), the initial fluorescence quenching data was used directly to calculate the binding curve and Kd.

[3] = molecular target: E3 (CUL4) (Homo sapiens (Human), UniProt Q13619); assay: E3 (CUL4) inhibition (Table 1); format: biochemical
Protocol: (§3) The reaction was incubated for 5 min at 37° C. […] The reaction was incubated for 5 min at room temperature. In the second step (chase), the completed Cdc34b-Ub thiol ester reaction mixture was combined with one third of the completed mono-ubiquitination mixture. The final volume was adjusted to 10 μl with a mix that contained 50 mM Tris-HCl (pH 7.4), 0.5 mM DTT, 0.1 mg/ml of BSA, 5 mM MgCl2, and 2 mM ATP. Compounds were added where indicated. The chase reaction was incubated for 10 min at 37° C. The reaction products were separated by 4-20% SDS-polyacrylamide gel electrophoresis. The reaction scheme was identical to the one described above for FIGS. 12A-B. […] The reaction products, separated by SDS-PAGE, were visualized and analyzed by phospho-imaging using Typhoon 9500 scanner.

[4] = molecular target: ROC1-CUL4A (Homo sapiens (Human), UniProt Q13619); assay: 32P-Ub chain elongation by ROC1-CUL4A; format: biochemical; parameters: concentration or dose not given beside the values; conditions: relative to KH-4-43
Protocol: as §3

[5] = molecular target: ROC1-CUL4A (full length) (Homo sapiens (Human), UniProt Q13619); assay: Ligand binding by MST; conditions: for Kd: read-out: E3 binding ROC1-CUL4A Kd
Protocol: as §2

[6] = system: cancer cells; assay: Apoptosis, Annexin V flow cytometry; format: cell-based
Protocol: Cells (5×10^4) were seeded 24 hours before compound treatment. Compound was added to the culture media and cells were cultured with the compound for 48 hours. The treated cells were then transferred into 5 ml flow cytometry tubes and the well was washed once with PBS to collect any remaining cells. The cells were then pelleted at 500×g for 5 min with a Beckman CS-6KR centrifuge at 4° C. After removal of supernatant, the cells pellet was washed with Annexin V binding buffer (10 mM Hepes-NaOH, pH 7.4, 150 mM NaCl, 5 mM KCl, 1 mM MgCl2, and 1.8 mM CaCl2). Cells were pelleted once again and incubated in the dark with Annexin V-FITC (2 μg/ml) in binding buffer for 5 min then analyzed using LSRFortessa flow cytometer (BD).

[7] = molecular target: E3 (CUL1) (Homo sapiens (Human), UniProt Q13616); assay: E3 (CUL1) inhibition (Table 1); format: biochemical
Protocol: as §1

[8] = system: MV4-11 tumors; assay: AML MV4-11 subcutaneous xenograft; conditions: G5, 3 mg/kg, QD, PO
[9] = Table 9, read-out: IC50 (FRET CUL1 assay)
[10] = Table 9, read-out: E3 Binding Kd (MST with CUL1 CTD)
[11] = Table 5, read-out: E3 inhibition IC50
[12] = Table 5, MST, read-out: E3 binding Kd

Chain of ROC1-CUL4A (Q13619 39-759): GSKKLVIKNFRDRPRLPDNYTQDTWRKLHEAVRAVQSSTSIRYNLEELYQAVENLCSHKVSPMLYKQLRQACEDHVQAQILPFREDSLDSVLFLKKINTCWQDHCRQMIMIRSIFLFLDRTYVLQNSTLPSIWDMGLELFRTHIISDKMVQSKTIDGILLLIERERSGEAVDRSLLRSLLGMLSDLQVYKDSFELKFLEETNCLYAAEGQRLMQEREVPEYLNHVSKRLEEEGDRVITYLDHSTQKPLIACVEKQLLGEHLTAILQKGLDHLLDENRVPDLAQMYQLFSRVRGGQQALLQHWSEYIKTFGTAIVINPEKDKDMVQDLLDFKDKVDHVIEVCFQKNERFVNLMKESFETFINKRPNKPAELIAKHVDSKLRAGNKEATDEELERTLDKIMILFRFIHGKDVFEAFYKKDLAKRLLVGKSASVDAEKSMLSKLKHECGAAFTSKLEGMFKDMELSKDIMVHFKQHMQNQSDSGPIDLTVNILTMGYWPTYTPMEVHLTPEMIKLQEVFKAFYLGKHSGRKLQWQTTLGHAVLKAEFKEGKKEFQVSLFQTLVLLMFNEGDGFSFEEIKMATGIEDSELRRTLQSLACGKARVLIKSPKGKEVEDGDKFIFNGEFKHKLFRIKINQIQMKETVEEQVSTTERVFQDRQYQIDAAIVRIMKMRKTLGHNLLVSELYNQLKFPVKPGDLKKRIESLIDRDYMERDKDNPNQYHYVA
Chain of ROC1-CUL4A (P62877 15-108 partner): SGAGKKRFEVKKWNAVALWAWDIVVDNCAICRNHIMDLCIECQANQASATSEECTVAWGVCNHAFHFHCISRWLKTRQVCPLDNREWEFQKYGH
Chain of ROC1-CUL4A (full length) (Q13619 39-759): as the sequence (Q13619 39-759) above
Chain of ROC1-CUL4A (full length) (P62877 15-108 partner): as the sequence (P62877 15-108 partner) above
T1 sequence (Q13616 411-776): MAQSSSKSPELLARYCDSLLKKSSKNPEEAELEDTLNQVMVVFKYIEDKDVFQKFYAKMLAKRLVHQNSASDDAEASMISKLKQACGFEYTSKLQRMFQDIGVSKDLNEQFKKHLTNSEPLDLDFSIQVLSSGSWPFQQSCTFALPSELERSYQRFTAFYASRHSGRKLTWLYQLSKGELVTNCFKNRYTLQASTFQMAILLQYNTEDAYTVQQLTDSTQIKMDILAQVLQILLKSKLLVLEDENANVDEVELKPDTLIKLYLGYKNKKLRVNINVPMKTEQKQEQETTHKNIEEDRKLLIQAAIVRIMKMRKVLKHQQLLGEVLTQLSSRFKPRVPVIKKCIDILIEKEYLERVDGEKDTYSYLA
T1 sequence (P62877 whole entry partner): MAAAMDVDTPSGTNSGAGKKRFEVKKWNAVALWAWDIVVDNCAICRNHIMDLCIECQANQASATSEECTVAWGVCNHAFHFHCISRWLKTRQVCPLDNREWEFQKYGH
Chain of E3 (CUL1) (Q13616 whole entry): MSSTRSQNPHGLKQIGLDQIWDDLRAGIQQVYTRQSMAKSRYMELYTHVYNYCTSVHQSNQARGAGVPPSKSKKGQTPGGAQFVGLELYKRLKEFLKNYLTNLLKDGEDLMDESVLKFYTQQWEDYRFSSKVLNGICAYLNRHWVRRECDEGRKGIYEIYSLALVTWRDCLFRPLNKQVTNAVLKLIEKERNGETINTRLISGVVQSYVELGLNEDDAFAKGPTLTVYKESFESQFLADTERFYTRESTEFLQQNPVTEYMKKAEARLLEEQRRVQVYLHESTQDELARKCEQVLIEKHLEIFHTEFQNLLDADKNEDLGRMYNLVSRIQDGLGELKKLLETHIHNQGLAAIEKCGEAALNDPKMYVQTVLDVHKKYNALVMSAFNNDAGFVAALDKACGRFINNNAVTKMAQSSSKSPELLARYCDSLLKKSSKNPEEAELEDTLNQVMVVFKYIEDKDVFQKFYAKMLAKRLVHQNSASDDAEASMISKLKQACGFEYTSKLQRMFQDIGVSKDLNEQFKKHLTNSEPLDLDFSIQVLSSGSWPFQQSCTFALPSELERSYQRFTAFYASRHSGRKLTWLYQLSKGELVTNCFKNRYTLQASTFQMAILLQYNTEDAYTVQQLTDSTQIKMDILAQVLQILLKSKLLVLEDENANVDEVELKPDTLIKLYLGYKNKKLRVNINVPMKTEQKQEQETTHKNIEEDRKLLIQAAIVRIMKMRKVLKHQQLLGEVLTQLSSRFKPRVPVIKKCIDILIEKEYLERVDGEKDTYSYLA
Chain of E3 (CUL1) (P62877 whole entry partner): as the sequence (P62877 whole entry partner) above
Chain of E3 (CUL4) (Q13619 whole entry): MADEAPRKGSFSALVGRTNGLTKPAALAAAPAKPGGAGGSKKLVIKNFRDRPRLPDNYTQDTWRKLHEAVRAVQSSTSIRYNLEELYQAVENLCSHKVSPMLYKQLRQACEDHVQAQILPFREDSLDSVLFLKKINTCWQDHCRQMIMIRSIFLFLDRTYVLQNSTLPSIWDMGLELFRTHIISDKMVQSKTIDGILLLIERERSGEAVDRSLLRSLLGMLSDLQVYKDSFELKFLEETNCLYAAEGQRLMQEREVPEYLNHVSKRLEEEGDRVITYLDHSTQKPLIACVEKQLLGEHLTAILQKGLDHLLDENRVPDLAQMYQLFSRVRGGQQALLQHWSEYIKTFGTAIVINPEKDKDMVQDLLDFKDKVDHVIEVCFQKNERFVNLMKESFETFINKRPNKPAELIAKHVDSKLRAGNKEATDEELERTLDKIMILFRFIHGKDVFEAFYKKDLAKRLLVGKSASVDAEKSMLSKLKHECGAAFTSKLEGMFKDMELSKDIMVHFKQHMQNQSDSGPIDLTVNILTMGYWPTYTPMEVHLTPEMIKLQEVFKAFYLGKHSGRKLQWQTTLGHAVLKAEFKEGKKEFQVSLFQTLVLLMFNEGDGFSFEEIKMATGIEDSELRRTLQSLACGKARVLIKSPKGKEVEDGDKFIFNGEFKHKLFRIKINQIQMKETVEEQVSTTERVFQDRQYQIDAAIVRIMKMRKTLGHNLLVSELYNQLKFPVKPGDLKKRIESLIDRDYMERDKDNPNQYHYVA
Chain of E3 (CUL4) (P62877 whole entry partner): as the sequence (P62877 whole entry partner) above

`O=c1c(Oc2ccc(Br)cc2)c(C(F)(F)F)oc2c(O)c(O)ccc12` showed an IC50 [1, 9] of 3.5 µM and a Kd [2, 10] of 1420 ± 260 nM.
In the case of `O=c1c(Oc2cccc(Br)c2)c(C(F)(F)F)oc2c(O)c(O)ccc12`, the IC50 [1, 9] is reported as 2.4 µM and the Kd [2, 10] is reported as 1900 ± 280 nM.
`O=c1c(Oc2ccccc2Br)c(C(F)(F)F)oc2c(O)c(O)ccc12` gave an IC50 [1, 9] of 2.7 µM and a Kd [2, 10] of 1950 ± 440 nM.
`O=c1c(Oc2ccc(Br)cc2)c(C(F)(F)F)oc2c(O)c(O)c(Br)cc12` gave an IC50 [1, 9] of 8.3 µM and a Kd [2, 10] of 1190 ± 360 nM.
In the case of `Cc1oc2c(O)c(O)ccc2c(=O)c1Oc1ccccc1` [#33-2, 7,8-dihydroxy-2-methyl-3-phenoxy-4H-chromen-4-one], the “drop in IC50 relative to #33” value [1] is reported as 7 fold, the IC50 [1, 11] is reported as 8.9 µM and the “reduction of binding Kd relative to #33” value [2] is reported as 8 fold. It also gave a Kd [2, 12] of 15000 nM.
For `COc1ccc2c(=O)c(Oc3ccccc3)c(C)oc2c1OC` [#33-3, 7,8-dimethoxy-2-methyl-3-phenoxy-4H-chromen-4-one], the “E3 inhibition IC50” value ([1]; Table 5) was “No inhibition”, the E3 inhibition [1] was “No inhibition” and the Kd [2, 12] was over 500000 nM.
`O=c1c(Oc2ccccc2)c(C(F)(F)F)oc2c3c(ccc12)OCCO3` [#33-5, 8-phenoxy-9-(trifluoromethyl)-2,3-dihydro-7H-[1,4]dioxino[2,3-h]chromen-7-one] was tested, and the “E3 inhibition IC50” value ([1]; Table 5) was “No inhibition”, the E3 inhibition [1] was “No inhibition” and the Kd [2, 12] was 48000 nM.
In the case of `O=c1c(Oc2ccccc2)c(C(F)(F)F)oc2cc(O)ccc12` [#33-7, 7-hydroxy-3-phenoxy-2-(trifluoromethyl)-4H-chromen-4-one], the “E3 inhibition IC50” value ([1]; Table 5) is reported as “No inhibition”, the E3 inhibition [1] is reported as “No inhibition” and the “reduction of binding Kd relative to #33” value [2] is reported as over 30 fold. The Kd [2, 12] was 57000 nM.
Compound `O=c1c(Oc2ccccc2)c(C(F)(F)F)oc2c3c(ccc12)OCO3` [Compound 33-4, 7-phenoxy-8-(trifluoromethyl)-6H-[1,3]dioxolo[4,5-h]chromen-6-one] has an IC50 [1, 11] of 80 µM and a Kd [2, 12] of 19000 nM.
In the case of `COc1c(O)ccc2c(=O)c(-c3cnn(-c4ccccc4)c3)c(C(F)(F)F)oc12` [KH-4-119], the “E3 (CUL4) Inhibition EC50” value [3] is reported as “Inactive”, the “E3 CRL4 Relative Inhibition” value [4] is reported as 13% and the “E3 binding ROC1-CUL4A Kd” value [5] is reported as “no detectable binding activity”. The “Apoptosis EC50” value ([6]; Table 1) was “Inactive”, the “Apoptosis EC50” value ([6]; Table 6) was “Inactive” and the induction of apoptosis ([6]; at 30 μM) was “unable to induce any detectable level of apoptosis”.
With `CCCCn1cc(-c2c(C(F)(F)F)oc3c(O)c(O)ccc3c2=O)cn1` [MM-007] the “E3 CRL4 Relative Inhibition” value [4] was 2%, the Kd [5] was 38 µM and the EC50 ([6]; Table 6) was 28 µM.
With `CCCn1cc(-c2c(C(F)(F)F)oc3c(O)c(O)ccc3c2=O)cn1` [MM-008] the “E3 CRL4 Relative Inhibition” value [4] was 0%, the Kd [5] was 26.4 µM and the EC50 ([6]; Table 6) was 38 µM.
For `CCn1cc(-c2c(C(F)(F)F)oc3c(O)c(O)ccc3c2=O)cn1` [MM-009], the “E3 CRL4 Relative Inhibition” value [4] was 0%, the Kd [5] was over 400 µM and the EC50 ([6]; Table 6) was 66 µM.
With `COc1ccc2c(=O)c(-c3cnn(Cc4cccc(C(F)(F)F)c4Cl)c3)c(C(F)(F)F)oc2c1OC` [MSSM-RJD-MM-020] the EC50 [7] was 53 µM, the EC50 [3] was over 10 µM and the EC50 ([6]; Table 1) was over 20 µM.
Compound `COc1ccc2c(=O)c(-c3cnn(Cc4cc(F)ccc4C(F)(F)F)c3)c(C(F)(F)F)oc2c1OC` [MSSM-RJD-MM-021, 3-(1-(5-fluoro-2-(trifluoromethyl)benzyl)-1H-pyrazol-4-yl)-7,8-dimethoxy-2-(trifluoromethyl)-4H-chromen-4-one] has an EC50 [7] of 66 µM, an EC50 [3] of over 10 µM and an EC50 ([6]; Table 1) of about 20 µM.
Compound `O=c1c(-c2cnn(Cc3ccccc3F)c2)c(C(F)(F)F)oc2c(O)c(O)ccc12` [MSSM-RJD-MM-022, 3-(1-(2-fluorobenzyl)-1H-pyrazol-4-yl)-7,8-dihydroxy-2-(trifluoromethyl)-4H-chromen-4-one] has an EC50 [7] of 30 µM, an EC50 [3] of over 10 µM and an EC50 ([6]; Table 1) of over 20 µM.
In the case of `O=c1c(-c2cnn(Cc3cccc(Cl)c3)c2)c(C(F)(F)F)oc2c(O)c(O)ccc12` [MSSM-RJD-MM-023, 3-(1-(3-chlorobenzyl)-1H-pyrazol-4-yl)-7,8-dihydroxy-2-(trifluoromethyl)-4H-chromen-4-one], the EC50 [7] is reported as 8.4 µM, the EC50 [3] is reported as over 10 µM and the EC50 ([6]; Table 1) is reported as 10 to 20 µM.
Compound `O=c1c(-c2cnn(Cc3cccc(F)c3)c2)c(C(F)(F)F)oc2c(O)c(O)ccc12` [MSSM-RJD-MM-024, 3-(1-(3-fluorobenzyl)-1H-pyrazol-4-yl)-7,8-dihydroxy-2-(trifluoromethyl)-4H-chromen-4-one] has an EC50 [7] of 7.9 µM, an EC50 [3] of over 10 µM and an EC50 ([6]; Table 1) of 10 to 20 µM.
`Cc1cccc(Cn2cc(-c3c(C(F)(F)F)oc4c(O)c(O)ccc4c3=O)cn2)c1` [MSSM-RJD-MM-025, 7,8-dihydroxy-3-(1-(3-methylbenzyl)-1H-pyrazol-4-yl)-2-(trifluoromethyl)-4H-chromen-4-one] showed an EC50 [7] of 3.9 µM, an EC50 [3] of over 10 µM and an EC50 ([6]; Table 1) of 10 to 20 µM.
Compound `O=c1c(-c2cnn(Cc3cc(C(F)(F)F)ccc3F)c2)c(C(F)(F)F)oc2c(O)c(O)ccc12` [MSSM-RJD-MM-026, 3-(1-(2-fluoro-5-(trifluoromethyl)benzyl)-1H-pyrazol-4-yl)-7,8-dihydroxy-2-(trifluoromethyl)-4H-chromen-4-one] has an EC50 [7] of 6.5 µM, an EC50 [3] of over 10 µM and an EC50 ([6]; Table 1) of over 20 µM.
Work on `O=c1c(-c2cnn(Cc3cc(C(F)(F)F)ccc3Cl)c2)c(C(F)(F)F)oc2c(O)c(O)ccc12` [MSSM-RJD-MM-027, 3-(1-(2-chloro-5-(trifluoromethyl)benzyl)-1H-pyrazol-4-yl)-7,8-dihydroxy-2-(trifluoromethyl)-4H-chromen-4-one] yielded an EC50 [7] of 5.6 µM, an EC50 [3] of over 10 µM and an EC50 ([6]; Table 1) of 10 to 20 µM.
`O=c1c(-c2cnn(Cc3cc(F)ccc3C(F)(F)F)c2)c(C(F)(F)F)oc2c(O)c(O)ccc12` [MSSM-RJD-MM-028] gave an EC50 [7] of 7.3 µM, an EC50 [3] of about 10 µM and an EC50 ([6]; Table 1) of about 20 µM.
Work on `CNC(=O)c1cc(Oc2ccc(NC(=O)Nc3ccc(Cl)c(C(F)(F)F)c3)cc2)ccn1` [Sorafenib, reference compound] yielded a tumor inhibition value [8] of 46.02%.
Compound `O=c1c(Oc2ccccc2)c(C(F)(F)F)oc2c(O)c(O)c(Br)cc12` [[drawing 256]] has an IC50 [1, 9] of 3.3 µM.
`O=c1c(Oc2ccccc2)c(C(F)(F)F)oc2c(O)c(O)c(Br)cc12` [drawing 256] was tested, and the IC50 [1, 9] was 3.1 µM and the Kd [2, 10] was 1890 ± 960 nM.
